Like-named read-outs stand apart in the source and are kept apart here.
Tests used:
INPP5E = biological target: T1, INPP5E (Homo sapiens, UniProt Q9NRR6); experiment: Fluorescence polarization; assay type: biochemical
T1 sequence (Q9NRR6 294-598 limits assumed): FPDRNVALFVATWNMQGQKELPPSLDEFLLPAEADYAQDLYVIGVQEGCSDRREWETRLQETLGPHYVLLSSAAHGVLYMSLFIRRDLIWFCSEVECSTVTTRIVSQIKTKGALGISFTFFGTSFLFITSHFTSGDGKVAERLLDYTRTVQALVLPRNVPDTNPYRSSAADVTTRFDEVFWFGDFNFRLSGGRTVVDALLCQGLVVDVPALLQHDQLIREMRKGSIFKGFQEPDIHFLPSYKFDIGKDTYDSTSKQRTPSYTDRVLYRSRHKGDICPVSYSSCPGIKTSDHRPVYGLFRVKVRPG

INPP5B [1] = biological target: T2, INPP5B (Homo sapiens, UniProt P32019); experiment: biochemical
INPP5B catalytic domain = INPP5B catalytic domain (Homo sapiens, UniProt P32019); experiment: Malachite green assay with IP3 substrate, dose response; assay type: biochemical
[2] = biological target: catalytic domain of human INPP5B (Homo sapiens, UniProt P32019); experiment: Isothermal titration calorimetry; assay type: binding
human dermal fibroblasts = experiment: Cellular inositol lipid levels, 3H-myo-inositol labeling and HPLC; assay type: cell-based; conditions: 50 μM, 1 hour treatment
[3] = system: 5-phosphatase domain of human OCRL in COS-7 cells; experiment: Optogenetic in situ phosphatase assay; assay type: cell-based; conditions: 50 μM, COS-7, n=14 cells, P<0.001 vs DMSO control
INPP5B [4] = biological target: T2, INPP5B; experiment: biochemical; remark: listed apart in the source
INPP5A = biological target: T3, INPP5A (Homo sapiens, UniProt Q14642); experiment: Malachite green assay with IP3 substrate, dose response; assay type: biochemical
T3 sequence (Q14642 1-402): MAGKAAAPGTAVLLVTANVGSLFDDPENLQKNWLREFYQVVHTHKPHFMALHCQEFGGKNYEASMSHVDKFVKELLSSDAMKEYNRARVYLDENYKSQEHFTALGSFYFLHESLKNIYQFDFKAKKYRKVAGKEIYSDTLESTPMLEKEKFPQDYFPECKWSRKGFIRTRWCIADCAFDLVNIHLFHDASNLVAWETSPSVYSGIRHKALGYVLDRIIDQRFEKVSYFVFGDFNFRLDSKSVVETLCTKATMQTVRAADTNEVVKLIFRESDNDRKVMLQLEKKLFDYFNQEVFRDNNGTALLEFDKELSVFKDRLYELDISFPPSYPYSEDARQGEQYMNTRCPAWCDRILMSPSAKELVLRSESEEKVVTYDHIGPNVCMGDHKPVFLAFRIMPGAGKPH

Synaptojanin 1 (SJ1) = Synaptojanin 1 (SJ1) (Homo sapiens, UniProt O43426); experiment: Fluorescence polarization; assay type: biochemical
SHIP1 = biological target: T4, SHIP1 (Mus musculus, UniProt Q9ES52); experiment: Fluorescence polarization; assay type: biochemical
T4 sequence (Q9ES52 1-1191): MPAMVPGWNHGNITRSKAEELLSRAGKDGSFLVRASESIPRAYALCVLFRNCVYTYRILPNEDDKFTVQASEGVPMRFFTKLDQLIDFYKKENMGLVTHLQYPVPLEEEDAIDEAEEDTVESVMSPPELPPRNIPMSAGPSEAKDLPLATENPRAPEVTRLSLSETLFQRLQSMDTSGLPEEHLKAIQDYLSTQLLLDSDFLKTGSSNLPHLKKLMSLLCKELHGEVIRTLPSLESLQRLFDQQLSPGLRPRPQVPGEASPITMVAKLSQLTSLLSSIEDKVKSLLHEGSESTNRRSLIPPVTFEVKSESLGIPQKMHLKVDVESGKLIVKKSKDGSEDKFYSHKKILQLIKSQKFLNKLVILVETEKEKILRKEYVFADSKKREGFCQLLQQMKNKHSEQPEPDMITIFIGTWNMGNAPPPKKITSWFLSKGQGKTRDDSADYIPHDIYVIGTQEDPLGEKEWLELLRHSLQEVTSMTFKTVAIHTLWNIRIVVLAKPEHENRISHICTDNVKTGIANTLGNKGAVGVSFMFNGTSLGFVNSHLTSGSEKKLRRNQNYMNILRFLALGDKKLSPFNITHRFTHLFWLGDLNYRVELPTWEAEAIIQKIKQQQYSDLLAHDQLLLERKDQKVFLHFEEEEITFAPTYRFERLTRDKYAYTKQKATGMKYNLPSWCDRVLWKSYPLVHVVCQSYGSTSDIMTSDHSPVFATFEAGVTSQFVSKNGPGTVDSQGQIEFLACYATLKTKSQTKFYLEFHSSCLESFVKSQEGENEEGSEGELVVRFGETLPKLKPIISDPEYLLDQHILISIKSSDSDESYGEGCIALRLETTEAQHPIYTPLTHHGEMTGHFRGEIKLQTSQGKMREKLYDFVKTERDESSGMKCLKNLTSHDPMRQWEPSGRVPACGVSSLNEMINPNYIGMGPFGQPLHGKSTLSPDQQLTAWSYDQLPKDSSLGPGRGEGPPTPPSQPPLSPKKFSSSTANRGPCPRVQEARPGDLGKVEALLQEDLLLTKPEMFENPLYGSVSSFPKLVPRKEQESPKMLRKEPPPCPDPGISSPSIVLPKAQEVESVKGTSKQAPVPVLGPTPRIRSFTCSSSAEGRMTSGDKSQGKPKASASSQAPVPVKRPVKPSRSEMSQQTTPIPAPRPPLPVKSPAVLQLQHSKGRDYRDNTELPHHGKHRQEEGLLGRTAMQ

cell cultures = conditions: preliminary experiments / data not shown

SMILES	IC50 (INPP5E) [nM]	IC50 (INPP5B [1]) [nM]	IC50 (INPP5B catalytic domain) [nM]	N (stoichiometry, ITC) ([2]; 25°C)	ΔH (ITC) ([2]; 25°C)	ΔS (ITC) ([2]; 25°C)	Ka (association constant, ITC) ([2]; 25°C, 500 µM compound into 33 µM INPP5B catalytic domain, 5% DMSO)	All other phosphoinositide levels measured (human dermal fibroblasts)	Loss (drop) of plasma membrane iRFP-PH-PLCδ1 fluorescence [3] [%]	IC50 (INPP5B [4]) [nM]	IC50 (INPP5A) [nM]	IC50 (Synaptojanin 1 (SJ1)) [nM]	IC50 (SHIP1) [nM]	Heat of binding to INPP5B catalytic domain (ITC, in words) ([2]; protein precipitation during the experiment, results inconclusive, data not shown)	Toxicity on cell cultures (cell cultures)
c1cc(-c2nnc3scnn23)ccn1 [YU142670]	> 70000	17500	530	0.9108 ± 0.0547	−7270 ± 588.6	0.5933	2.352×10^5 ± 8.744×10^4	remained unchanged	32±3						
COc1cc(-c2nnc3sc(-c4cccs4)nn23)cc(OC)c1OC [YU142717]			920							2630					
COc1cc(CN)c(Br)cc1OCc1ccccc1Cl [YU144118]	5770		1100								1810	1300	8970		
CCOc1cc(CN)cc(Br)c1OCC [YU144369]	2330		570								1070	3630	2520	measurable heat of binding	acute toxicity
CC(C)Oc1c(Cl)cc(CN)cc1Cl [YU144530]	2800		810								1440	> 70000	2890		

Reference: article PMC4076014 (ACS chemical biology, 2014)
